Target: T1, human PF4 (Homo sapiens, UniProt P02776)
T1 construct: PF4 is a 70 amino acid, lysine-rich 7.8 kDa platelet-specific protein; made in house; host or cells: Escherichia coli BL21DE3 pLysS (pT7-7) and/or Drosophila S2 cells
T1 sequence (P02776 32-101): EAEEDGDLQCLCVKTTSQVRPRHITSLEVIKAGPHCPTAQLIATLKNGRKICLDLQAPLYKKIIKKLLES
Test: Inhibition of PF4 tetramer formation (BS3 cross-linking, SDS-PAGE)
Assay type: biochemical
Settings: for inhibition at 1 µM: 1 μM inhibitor; for inhibition at 1 µM / inhibition at 3 µM / inhibition at 5 µM / inhibition at 10 µM: read-out: % inhibition of PF4 tetramer formation at single concentration of inhibitor; for inhibition at 3 µM: 3 μM inhibitor (column A); for inhibition at 5 µM: 5 μM inhibitor; for inhibition at 10 µM: 10 μM inhibitor (column A); for IC50: read-out: IC50 of PF4 tetramer formation inhibition
Experimental: Compounds of Examples 1-38, 65-301, 303, 305, 307, 309, 311, 313, 314, 316, and 318-404 were tested using SDS PAGE analysis of BS3 crosslinked PF4 for their ability to prevent PF4 tetramer formation. […] See, Suvarna et al., Throm. Res, 122:211-220 (2008), which is hereby incorporated by reference, at least for a detailed description of this technique.
cDNA encoding human PF4 was cloned into the plasmid μMT/BiPN5-His A (Invitrogen Corp., Carlsbad CA) for expression in the Drosophila Expression System (Invitrogen, Carlsbad, CA). Cloning was performed using Bg1 II and Age I cloning sites. A hexanucleotide encoding Bg1 II site was then eliminated by site-directed mutagenesis so that the expressed protein contained full-length wild type (wt) PF4 or PF4^K50E with an identical sequence as their counterparts expressed in E. coli. See, method described in Sachais et al (Sachais, B. S. et al. (2012). Blood 119(25): 5955-5961). PF4 expression was induced by adding copper sulfate (0.5 mM). The induced S2 cells were incubated in serumfree Insect-Xpress™ media (Lonza, Walkersville, MD) for 3-5 days; supernatants were collected, sodium azide (0.02% final concentration) and EDTA (2.5 mM final concentration) were added, and the media were filtered through an Express® PLUS 0.22 μm filter (Millipore Corp., Billerica, MA).
Wild-type (WT) human PF4 in the pT7-7 vector (Novagen, Madison, WI) was expressed in the Escherichia coli strain BL21DE30 pLysS (Stratagene, La Jolla, CA), and purified and characterized as described by Rauova et al. (Rauova, L. et al. (2006). Blood 107(6): 2346-2353) and Park et al., (Blood, 75:1290-1295 (1990)), which are hereby incorporated by reference. Briefly, recombinant protein was isolated from the supernatant of the bacterial lysate by affinity chromatography using a HiTrap high-performance (HP) affinity column. WT PF4 was purified from the media on a heparin HiTrap® column on an ÄTKAPrime™ system (GE Healthcare) at 4° C. in Tris (10 mM), EDTA (1 mM), and pH 8 buffer. Media was loaded in buffer containing NaCl (0.5 M) and PF4 was eluted at 1.8 M NaCl using a linear gradient. Fractions containing purified PF4 as detected by silver staining of 12% NuPAGE Bis-Tris gels (Invitrogen) were pooled, concentrated and buffer exchanged into 50 mM HEPES, 0.5 M NaCl, pH—7.2 using an Amicon® Ultra centrifugal filter (3K NMWL, Millipore Corp). Protein was quantified using a BCA assay.
Compounds of Examples 1-38, 65-196, and 209-228 were then tested for their ability to inhibit PF4 tetramer formation using a cross-linking assay as described in Rauova cited above. Specifically, hPF4 (10 μg/ml) in phosphate-buffered saline (PBS) was incubated at 37° C. for 15 min in the absence of the antagonistic compounds (control sample) and presence of compounds. Cross-linking and SDS-PAGE analysis were then performed as described in “Analysis of PF4 multimerization” of Rauova. The relative amounts of PF4 in each of the monomer, dimer, trimer and tetramer form were calculated by analyzing the samples on a 12% SDS-polyacrylamide gel under reducing conditions. Bands were quantified using the Kodak ID Image Analysis system (Kodak, Rochester, NY). The SigmaMarker™ reagent served as the molecular weight standard. Data was compiled and bar graphed as % PF4 for the tetramer, trimer, dimer, and monomer as a function of concentration for the test and control samples.
This experiment was performed in a manner similar to experiment 1, but PF4 (10 μg/ml) in PBS was independently incubated with compounds of Examples 1-38, 65-196, and 209-228 for 60 min at room temperature, followed by the addition of cross-linking reagent bis(sulfosuccinimidyl)suberate (0.2 mM) for 30 min at room temperature. The reaction was stopped by adding NuPAGE® lithium dodecyl sulfate (LDS) sample buffer, and denatured by heating to 70° C. for 10 min according to the manufacturer's instructions. […]

SMILES: O=C(COC1CCCCC1)C1C(=O)c2ccc(S(=O)(=O)c3ccc4c(c3)C(=O)C(C(=O)COC3CCCCC3)C4=O)cc2C1=O (stereo not shown) [Example 232, 2-[2-(cyclohexyloxy)acetyl]-5-({2-[2-(cyclohexyloxy)acetyl]-1,3-dioxo-2,3-dihydro-1H-inden-5-yl}sulfonyl)-2,3-dihydro-1H-indene-1,3-dione]
- inhibition at 1 µM: 10%
- inhibition at 3 µM: 67%

SMILES: O=C(c1ccc2c(c1)C(=O)C(C(=O)Cn1cccn1)C2=O)c1ccc2c(c1)C(=O)C(C(=O)Cn1cccn1)C2=O (stereo not shown) [Example 126, 5-{1,3-dioxo-2-[2-(1H-pyrazol-1-yl)acetyl]-2,3-dihydro-1H-indene-5-carbonyl}-2-[2-(1H-pyrazol-1-yl)acetyl]-2,3-dihydro-1H-indene-1,3-dione]
- inhibition at 5 µM: 88%
- inhibition at 10 µM: 89%
- IC50: 3100 nM

SMILES: O=C1c2ccc(S(=O)(=O)c3ccc4c(c3)C(=O)C(C(=O)C3CCC3)C4=O)cc2C(=O)C1C(=O)C1CCC1 (stereo not shown) [Example 296, 2-cyclobutanecarbonyl-5-[(2-cyclobutanecarbonyl-1,3-dioxo-2,3-dihydro-1H-inden-5-yl)sulfonyl]-2,3-dihydro-1H-indene-1,3-dione]
- inhibition at 1 µM: 22%
- inhibition at 3 µM: 36%

SMILES: COC(=O)[C@H]1CCCC[C@H]1C(=O)C1C(=O)c2ccc(S(=O)(=O)c3ccc4c(c3)C(=O)C(C(=O)[C@@H]3CCCC[C@@H]3C(=O)OC)C4=O)cc2C1=O (stereo partly drawn) [Example 257, methyl (1S,2R)-2-[5-({2-[(1R,2S)-2-(methoxycarbonyl)cyclohexanecarbonyl]-1,3-dioxo-2,3-dihydro-1H-inden-5-yl}sulfonyl)-1,3-dioxo-2,3-dihydro-1H-indene-2-carbonyl]cyclohexane-1-carboxylate]
- inhibition at 1 µM: 7%
- inhibition at 3 µM: 37%

SMILES: O=C1c2ccc(Oc3ccc4c(c3)C(=O)C(C(=O)C3CCC3)C4=O)cc2C(=O)C1C(=O)C1CCC1 (stereo not shown) [Example 297, 2-cyclobutanecarbonyl-5-[(2-cyclobutanecarbonyl-1,3-dioxo-2,3-dihydro-1H-inden-5-yl)oxy]-2,3-dihydro-1H-indene-1,3-dione]
- inhibition at 1 µM: 38%
- inhibition at 3 µM: 100%
- IC50: 1740 nM

SMILES: CC(C)(C)OC(=O)N[C@@H](CC(=O)O)C(=O)C1C(=O)c2ccc(C(=O)c3ccc4c(c3)C(=O)C(C(=O)[C@H](CC(=O)O)NC(=O)OC(C)(C)C)C4=O)cc2C1=O (stereo partly drawn) [Example 188, (3S)-3-{[(tert-butoxy)carbonyl]amino}-4-(5-{2-[(2S)-2-{[(tert-butoxy)carbonyl]amino}-3-carboxypropanoyl]-1,3-dioxo-2,3-dihydro-1H-indene-5-carbonyl}-1,3-dioxo-2,3-dihydro-1H-inden-2-yl)-4-oxobutanoic acid]
- inhibition at 5 µM: 88%
- inhibition at 10 µM: 94%
- IC50: 2300 nM

SMILES: O=C(c1ccc2c(c1)C(=O)C(C(=O)Nc1ccc(I)cc1)C2=O)c1ccc2c(c1)C(=O)C(C(=O)Nc1ccc(I)cc1)C2=O (stereo not shown) [Example 105, N-(4-iodophenyl)-5-{2-[(4-iodophenyl)carbamoyl]-1,3-dioxo-2,3-dihydro-1H-indene-5-carbonyl}-1,3-dioxo-2,3-dihydro-1H-indene-2-carboxamide]
- IC50: 2800 nM

SMILES: CC(C)(C)OC(=O)NCC(=O)C1C(=O)c2ccc(C(c3ccc4c(c3)C(=O)C(C(=O)CNC(=O)OC(C)(C)C)C4=O)(C(F)(F)F)C(F)(F)F)cc2C1=O (stereo not shown) [Example 228, tert-butyl N-[2-(5-{2-[2-(2-{[(tert-butoxy)carbonyl]amino}acetyl)-1,3-dioxo-2,3-dihydro-1H-inden-5-yl]-1,1,1,3,3,3-hexafluoropropan-2-yl}-1,3-dioxo-2,3-dihydro-1H-inden-2-yl)-2-oxoethyl]carbamate]
- IC50: 2800 nM

SMILES: COc1ccc(NC(=O)C2C(=O)c3ccc(S(=O)(=O)c4ccc5c(c4)C(=O)C(C(=O)Nc4ccc(OC)cc4OC)C5=O)cc3C2=O)c(OC)c1 (stereo not shown) [Example 94, N-(2,4-dimethoxyphenyl)-5-({2-[(2,4-dimethoxyphenyl)carbamoyl]-1,3-dioxo-2,3-dihydro-1H-inden-5-yl}sulfonyl)-1,3-dioxo-2,3-dihydro-1H-indene-2-carboxamide]
- inhibition at 5 µM: 33%
- inhibition at 10 µM: 62%
